Measurements published in article PMC6010013, “Synthesis, physiochemical property and antimicrobial activity of novel quaternary ammonium salts” (Journal of Enzyme Inhibition and Medicinal Chemistry, 2017).

What was measured:
Aspergillus niger [1] = assay: MIC, broth tube dilution; assay type: cell-based; details: 72 h, 28 ℃, read-out: Minimal inhibitory concentration (MIC)
Description: (§1) In this paper, antimicrobial activities of 24 QASs were detected by quantitative tests. […] Benzalkonium chloride (BZK) and chlorhexidine acetate (CA) was selected as positive controls. Representative compound POT-C12QAS (2) which synthesised and evaluated in previous work was also taken as a reference compound in MIC, MBC and cytotoxicity tests. […]
(§2) agriculture were used as target pathogens in this study, including three strains of Gram-positive bacteria (S. Aureus, α-H-tococcus, β-H-tococcus), three strains of Gram-negative bacteria (E. coli, P. aeruginosa, Proteus vulgaris) and four strains of fungi (Canidia albicans, Cytospora mandshurica, Physalospora piricola, Aspergillus niger). The antimicrobial tests were assayed, according to standard CLSI methods for antimicrobial dilution susceptibility tests to measure the minimum inhibitory concentration (MIC) and minimum bactericidal concentration (MBC)2.
(§3) A broth tube dilution method was followed to determine the MIC values for all the screened compounds against the micro-organisms, and for comparison benzalkonium chloride (BZK) and chlorhexidine acetate (CA) was used as a reference. For sample preparation, each of the test compounds and reference were dissolved in DMSO or sterile water at a concentration of 1600 μg/mL, and further dilutions of the compounds and reference in culture medium MHB (Muller-Hinton Broth) were prepared at the required quantities of 400, 200, 100 etc., down to 0.39 μg/mL. Bacterial strains and fungal strains were maintained on MHA (Muller-Hinton Agar) medium at 37℃ or 28 ℃ for 12 h or 72h, respectively. The microbial inocula were prepared by suspension in 10 mL of culture medium for colonies from culture on MHA. The cell density of each inoculum was adjusted in culture medium of a 0.5 McFarland standard (1-2×10^8 CFU/mL). The final amount applied was 10^5 CFU/mL for bacteria and fungi. The microbial inocula were added to the twofold diluted samples. One growth control tube was prepared […] the addition of the compound and one blank tube was prepared without the addition of the microorganism. MIC values were read after incubation at 37℃ or 28 ℃ for bacterial and fungal strains, respectively. After 12 h or 72h, the last tube with no growth of micro-organisms was recorded to represent the MIC value expressed in μg/ml. All experiments were carried out three times. […]

Canidia albicans [2] = assay: MIC, broth tube dilution; assay type: cell-based; details: 72 h, 28 ℃, read-out: Minimal inhibitory concentration (MIC)
Description: as §1, §2, §3

Cytospora mandshurica [3] = assay: MIC, broth tube dilution; assay type: cell-based; details: Cytospora, 72 h, 28 ℃, read-out: Minimal inhibitory concentration (MIC)
Description: as §1, §2, §3

E. coli [4] = assay: MIC, broth tube dilution; assay type: cell-based; details: Escherichia coli, 12 h, 37℃, read-out: Minimal inhibitory concentration (MIC)
Description: as §1, §2, §3

P. aeruginosa [5] = assay: MIC, broth tube dilution; assay type: cell-based; details: Pseudomonas aeruginosa, 12 h, 37℃, read-out: Minimal inhibitory concentration (MIC)
Description: as §1, §2, §3

Physalospora piricola [6] = assay: MIC, broth tube dilution; assay type: cell-based; details: 72 h, 28 ℃, read-out: Minimal inhibitory concentration (MIC)
Description: as §1, §2, §3

Proteus vulgaris [7] = assay: MIC, broth tube dilution; assay type: cell-based; details: 12 h, 37℃, read-out: Minimal inhibitory concentration (MIC)
Description: as §1, §2, §3

S. aureus [8] = assay: MIC, broth tube dilution; assay type: cell-based; details: Staphylococcus aureus, 12 h, 37℃, read-out: Minimal inhibitory concentration (MIC)
Description: as §1, §2, §3

α-H-tococcus [9] = assay: MIC, broth tube dilution; assay type: cell-based; details: 12 h, 37℃, read-out: Minimal inhibitory concentration (MIC)
Description: as §1, §2, §3

β-H-tococcus = assay: MIC, broth tube dilution; assay type: cell-based; details: 12 h, 37℃, read-out: Minimal inhibitory concentration (MIC)
Description: as §1, §2, §3

Aspergillus niger [10] = assay: MBC, agar plating of dilutions without growth; assay type: cell-based; details: 99.9% bactericidal, read-out: Minimal bactericidal concentration (MBC)
Description: as §1, §2, §3
(§4) was placed on agar plates in triplicate, and incubated at 37℃ or 28 ℃ for 12 h or 72h. The number of colonies on each plate was read, and the MBC was determined as the lowest concentration that achieved a 99.9% bactericidal in the agar plate.

Canidia albicans [11] = assay: MBC, agar plating of dilutions without growth; assay type: cell-based; details: 99.9% bactericidal, read-out: Minimal bactericidal concentration (MBC)
Description: as §1, §2, §3, §4

Cytospora mandshurica [12] = assay: MBC, agar plating of dilutions without growth; assay type: cell-based; details: Cytospora, 99.9% bactericidal, read-out: Minimal bactericidal concentration (MBC)
Description: as §1, §2, §3, §4

E. coli [13] = assay: MBC, agar plating of dilutions without growth; assay type: cell-based; details: Escherichia coli, 99.9% bactericidal, read-out: Minimal bactericidal concentration (MBC)
Description: as §1, §2, §3, §4

P. aeruginosa [14] = assay: MBC, agar plating of dilutions without growth; assay type: cell-based; details: Pseudomonas aeruginosa, 99.9% bactericidal, read-out: Minimal bactericidal concentration (MBC)
Description: as §1, §2, §3, §4

Physalospora piricola [15] = assay: MBC, agar plating of dilutions without growth; assay type: cell-based; details: 99.9% bactericidal, read-out: Minimal bactericidal concentration (MBC)
Description: as §1, §2, §3, §4

Proteus vulgaris [16] = assay: MBC, agar plating of dilutions without growth; assay type: cell-based; details: 99.9% bactericidal, read-out: Minimal bactericidal concentration (MBC)
Description: as §1, §2, §3, §4

S. aureus [17] = assay: MBC, agar plating of dilutions without growth; assay type: cell-based; details: Staphylococcus aureus, 99.9% bactericidal, read-out: Minimal bactericidal concentration (MBC)
Description: as §1, §2, §3, §4

α-H-tococcus [18] = assay: MBC, agar plating of dilutions without growth; assay type: cell-based; details: 99.9% bactericidal, read-out: Minimal bactericidal concentration (MBC)
Description: as §1, §2, §3, §4

Cytotoxicity, MTT assay = assay type: cell-based, human; details: human, MTT, 24 h
Experimental: These six series of antimicrobial compounds may be applied to daily or clinical disinfectants for unbroken skin and trauma, or agricultural fungicides alternatively. Thus, their cytotoxicity for skin or body tissues are crucial. In this study, the cytotoxicity of target compounds was evaluated for human immortalised epidermal (HaCat) and human normal liver (LO2) cell line using MTT assay. […] The IC50 values of 5a, 6a, 10a, 16a, 16 b were about more than 50 μg/mL for LO2 and HaCat.
Cytotoxicity Testing with MTT Method
Human immortalized epidermal cells (HaCat) line were cultured in Dulbecco’s modified Eagle’s medium containing 10% fetal bovine serum, 1% penicillin, and 1% streptomycin at 37°C in a 5% CO2/95% air incubator MCO-15AC (SANYO). Human normal liver cells (LO2) line were cultured in Roswell Park Memorial Institute medium containing 10% fetal bovine serum, 1% penicillin, and 1% streptomycin at 37°C in a 5% CO2/95% air incubator MCO-15AC (SANYO). HaCat or LO2 cells in 96-well plate were adjusted to 1.0 × 10^5 cells mL-1 and cells were passed and cell supernatant was pour out before plating on glass slide at 37°C, 5% CO2 for 24 h. Cells were pretreated with 100 μL QAS for 24 h and cell supernatant with QAS was pour out and washed with PBS buffer system. Then, the cells were treated with the MTT solution (MTT, 3-(4,5-dimethythiazol-2-yl)-2,5-diphenyl-tetrazolium bromide, 20 μL, 5 mg/mL) for 4 h. The dark blue formazan crystal formed in the intact cells was solubilized with dimethyl sulfoxide, and absorbance at 570 nm was measured with a microplate reader (Multiskan MK3-Thermo Labsystems, USA). The results were expressed as percentage of the control value from the normal cells without treatments of QAS. […]

[19] = LO2 human normal liver cells, LO2 cells

SMILES	MIC (Aspergillus niger [1]) [mg/L]	MIC (Canidia albicans [2]) [mg/L]	MIC (Cytospora mandshurica [3]) [mg/L]	MIC (E. coli [4]) [mg/L]	MIC (P. aeruginosa [5]) [mg/L]	MIC (Physalospora piricola [6]) [mg/L]	MIC (Proteus vulgaris [7]) [mg/L]	MIC (S. aureus [8]) [mg/L]	MIC (α-H-tococcus [9]) [mg/L]	MIC (β-H-tococcus) [mg/L]	MBC (Aspergillus niger [10]) [mg/L]	MBC (Canidia albicans [11]) [mg/L]	MBC (Cytospora mandshurica [12]) [mg/L]	MBC (E. coli [13]) [mg/L]	MBC (P. aeruginosa [14]) [mg/L]	MBC (Physalospora piricola [15]) [mg/L]	MBC (Proteus vulgaris [16]) [mg/L]	MBC (S. aureus [17]) [mg/L]	MBC (α-H-tococcus [18]) [mg/L]	IC50 at 24 h (Cytotoxicity, MTT assay; [19]) [mg/L]	also measured
C[N+](CCO)(CCO)CCCCCCCCCCCCSc1nc2ccccc2s1 [Compound 13d]	~3.12	~6.25	~1.56	~25	~25	~3.12	~25	~6.25	~12.5	~1.56	6.25	6.25	~6.25	25	25	3.12	25	6.25	12.5	8.96 ± 0.46	IC50 at 24 h (Cytotoxicity, MTT assay; HaCat cells): 6.02 ± 0.35 mg/L
C[N+](CCO)(CCO)CCCCCCCCCCSc1nnc(-c2ccc(C(F)(F)F)cc2)o1.[Br-] [Compound 6c]	12.5	25	12.5	25	50	3.12	25	25	12.5	6.25	12.5	25	12.5	25	50	3.12	25	25	12.5	19.6 ± 1.62	IC50 at 24 h (Cytotoxicity, MTT assay; HaCat human immortalised epidermal cells, HaCat cells): 12.1 ± 1.57 mg/L
C[N+](CCO)(CCO)CCCCCCSc1nnc(-c2ccc(C(F)(F)F)cc2)o1 [Compound 6a]	25	50	12.5	50	100	6.25	100	50	50	25	25	50	25	50	100	12.5	100	50	50	> 50	IC50 at 24 h (Cytotoxicity, MTT assay; HaCat cells): > 50 mg/L
